Experimental data published in paper PMC11696430, “A Water-Soluble Small Molecule Boron Carrier Targeting Biotin Receptors for Neutron Capture Therapy” (ACS Omega, 2024).
Values belong to the compound of their own block, whether it stands above or below them.

How the values were obtained:
CT26 cells = test: Biotin competition cellular uptake assay; format: cell-based, mouse; conditions: CT26, biotin 772 μM to 3.09 mM, 24 h
Experimental: Figure 3 (A) Time-course evaluation of cellular uptake for BBC-IP, BBC, and BPA in A549, B16, CT26, MDA-MB-231, and U87MG cells. Compounds were incubated for 2.5, 6, and 24 h in cells, and boron concentration was measured using inductively coupled plasma optical emission spectroscopy (ICP-OES) after ashing with conc. HNO3. Data are shown as the mean ± SEM from a single experiment conducted in triplicate. (B) Biotin concentration-dependent cell uptake study of BBC-IP, BBC and BPA in CT26 cells. Boron concentration was determined after incubation with compounds at various concentrations of biotin for 24 h. (C) Intracellular distribution of BBC-IP in CT26 cells. Cells were incubated with BBC-IP (ca. 25 μg [B]/mL) for 3 h, followed by […] using an anti-closo-dodecaborate antibody and lysosomal staining with Lysotracker. Red: lysosomes stained with LysoTracker Red DND-99; Green: BBC-IP localization; Blue: nuclei stained with DAPI. Scale bars: 25 μm. (D) Intracellular distribution of BPA in CT26 cell lines. Cells were incubated with BPA (ca. 25 μg [B]/mL) for 3 h, followed by fluorescent modification with a boron sensor,[24] nucleus staining with NucleoSeeing and lysosomal staining with a lysotracker. […] The cells were incubated for another 24 h, harvested using a cell scraper, and counted. […]

CT26 tumor-bearing mice = test: BNCT efficacy in CT26 tumor-bearing mice; format: in vivo, mouse; conditions: i.v. 15 mg [10B]/kg, neutron irradiation 3 h later
Experimental: Figure 4 (A–D) Biodistribution of boron in the CT26-bearing mice at 3, 6, and 12 h post- intravenous injection of (A) BBC-IP, (B) BBC, (C) BBC-IP-HSA and (D) BPA at the dose of 15 mg [B]/kg. The data are shown as mean ± SEM (n = 3–4). (E, F) BNCT of the CT26 tumor-bearing mice intravenously injected with 15 mg [^10B]/kg of BBC-IP-HSA and BPA. (E) The tumor volume curves after thermal neutron irradiation (also see Figure S5, Supporting Information). (F) Mice body weight corresponding to the treatments in panel (E). Results are shown as the mean ± SEM (n = 5 for the groups with BBC-IP-HSA, BPA and no treatment, n = 4 for the groups with neutron only). The two-sided Student’s t-test was applied to determine statistical significance, defined as *p < 0.05, **p < 0.0001.
CT26 tumor-bearing mice were prepared by subcutaneously injecting a suspension of CT26 cells (8.0 × 10^5 cells/mouse) into the right thigh. […] The BNCT effects were assessed based on tumor volume changes. Tumor volume was calculated using the formula 0.5 × (A × B^2), where A and B represent the longest and shortest tumor diameters in millimeters, respectively. […]
(B) Body weight of the same mice treated in panel A. (C) The tumor volume curves of the individual mice after irradiation with thermal neutron. […] Significance was determined as: *p < 0.05, **p < 0.0001 using the two-sided […]

MTT cytotoxicity assay [1] = conditions: human, A549 cells (human lung carcinoma)
Experimental: (§1) Human lung carcinoma (A549), mouse melanoma (B16), mouse colon carcinoma (CT26), human breast adenocarcinoma (MDA-MB-231), and human glioblastoma (U87MG) cell lines were maintained in Roswell Park Memorial Institute (RPMI)-1640 medium (Fujifilm Wako Pure Chemicals Co., Ltd., Japan) supplemented with 10% heat-inactivated fetal bovine serum (Thermo Fisher Scientific, Inc.) and 1% penicillin/streptomycin (final concentrations: 100 units/mL penicillin G and 10 μg/mL streptomycin; Thermo Fisher Scientific, Inc.). The cells were cultured at 37 °C in a humidified incubator with 5% CO2. For experiments, A549, B16, CT26, MDA-MB-231, and U87MG cells were seeded into 96-well plates at a density of 1000 cells per well. […] Following treatment, 0.5 mg/mL 3-(4,5-dimethylthiazol-2-yl)-2,5-diphenyltetrazolium bromide (MTT; Tokyo Chemical Industry Co., Ltd., Japan) was added to each well, and the plates were incubated for 4 h at 37 °C. After incubation, the medium was carefully removed, and the resulting MTT formazan product was dissolved in 100 μL of dimethyl sulfoxide (DMSO). The absorbance of the solution was measured at 590 nm using a microplate reader. The half-maximal inhibitory concentration (IC50) for each compound was calculated from semilogarithmic dose–response curves.

MTT cytotoxicity assay [2] = conditions: mouse, B16 cells (mouse melanoma)
Experimental: as §1

MTT cytotoxicity assay [3] = conditions: mouse, CT26 cells (mouse colon carcinoma)
Experimental: as §1

MTT cytotoxicity assay [4] = conditions: human, MDA-MB-231 cells (human breast adenocarcinoma)
Experimental: as §1

MTT cytotoxicity assay [5] = conditions: human, U87MG cells (human glioblastoma)
Experimental: as §1

[6] = stated in Introduction without reference; cited from earlier work
[7] = system: A549 (human lung carcinoma) cells
Experimental: as §1

[8] = system: B16 (mouse melanoma) cells
Experimental: as §1

[9] = system: CT26 (mouse colon carcinoma) cells
Experimental: as §1

[10] = system: MDA-MB-231 (human breast adenocarcinoma) cells
Experimental: as §1

[11] = system: U87MG (human glioblastoma) cells
Experimental: as §1

[12] = biological target: human serum albumin (HSA) (Homo sapiens, UniProt P02768); parameters: method as in PMID 38770220; conditions: ELISA, Figure S1; stated as previously reported value; read-out: dissociation constant (Kd) to HSA; cited from earlier work
Chain of human serum albumin (HSA) (P02768 25-609): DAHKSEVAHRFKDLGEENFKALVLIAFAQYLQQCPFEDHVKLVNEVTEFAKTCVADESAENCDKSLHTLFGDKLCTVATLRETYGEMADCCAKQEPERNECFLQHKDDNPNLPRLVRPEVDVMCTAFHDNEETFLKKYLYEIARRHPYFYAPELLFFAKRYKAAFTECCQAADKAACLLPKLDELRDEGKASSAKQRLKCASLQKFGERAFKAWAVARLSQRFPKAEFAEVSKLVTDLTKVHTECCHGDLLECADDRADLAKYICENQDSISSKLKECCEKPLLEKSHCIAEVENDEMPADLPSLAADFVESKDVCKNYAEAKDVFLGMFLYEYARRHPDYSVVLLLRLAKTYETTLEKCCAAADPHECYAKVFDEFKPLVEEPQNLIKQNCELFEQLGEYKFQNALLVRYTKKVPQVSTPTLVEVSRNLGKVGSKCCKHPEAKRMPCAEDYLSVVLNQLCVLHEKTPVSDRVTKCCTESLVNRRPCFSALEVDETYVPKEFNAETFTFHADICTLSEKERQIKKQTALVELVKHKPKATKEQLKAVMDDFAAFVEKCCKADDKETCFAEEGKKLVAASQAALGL

Compound: N[C@@H](Cc1ccc(B(O)O)cc1)C(=O)O [BPA, 4-borono-L-phenylalanine, reference compound]
decrease of accumulation under biotin competitive conditions (up to) (CT26 cells): largely unaffected
antitumor efficacy / tumor growth compared between agents (CT26 tumor-bearing mice; 20-day monitoring): significantly higher antitumor efficacy than BBC-IP-HSA
tumor suppression versus neutron-only group (CT26 tumor-bearing mice; 20 days after irradiation): significantly greater tumor suppression compared to the neutron-only group
IC50 at 72 h (MTT cytotoxicity assay [1]): > 1000 µM
IC50 at 72 h (MTT cytotoxicity assay [2]): 910 ± 130 µM
IC50 at 72 h (MTT cytotoxicity assay [3]): > 1000 µM
IC50 at 72 h (MTT cytotoxicity assay [4]): > 1000 µM
IC50 at 72 h (MTT cytotoxicity assay [5]): > 1000 µM

Compound: O=C(O)CCCC[C@@H]1SC[C@@H]2NC(=O)N[C@@H]21 [biotin]
water solubility [6]: approximately 0.9 mM

IC50 [7]: > 1000 µM
IC50 [8]: > 1000 µM
IC50 [9]: > 1000 µM
IC50 [10]: > 1000 µM
IC50 [11]: > 1000 µM
Compound: biotin-closo-dodecaborate conjugate [BBC]
decrease of accumulation under biotin competitive conditions (up to) (CT26 cells): ~20%

Compound: pteroyl-closo-dodecaborate conjugated with a 4-(p-iodophenyl)butyric acid moiety [PBC-IP]
Kd [12]: 11.7 ± 0.8 µM
